Experimental data as given in PubChem BioAssay (NCI).
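Cells were grown in 96-well plates and exposed to each compound for 48 hours at five concentrations; endpoints were interpolated linearly between bracketing concentrations, or set to the highest concentration if not reached. Definition used: TGI = concentration required for complete inhibition of growth.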

Tests used:
Experiment in all cases: NCI tumour cell line growth inhibition, 48 h
[1] = system: HOP-62 NSCLC
[2] = system: PC-3 prostate
[3] = system: NCI-H460 lung
[4] = system: SK-MEL-2 melanoma
[5] = system: DU-145 prostate
[6] = system: SW-620 colon
[7] = system: UO-31 renal
[8] = system: HCT-15 colon
[9] = system: A498 renal
[10] = system: NCI/ADR-RES ovarian
[11] = system: MCF7 breast
[12] = system: MDA-N
[13] = system: SK-MEL-28 melanoma
[14] = system: UACC-257 melanoma
[15] = system: SF-295 CNS
[16] = system: OVCAR-8 ovarian
[17] = system: HCC-2998 colon
[18] = system: TK-10 renal
[19] = system: MDA-MB-435
[20] = system: COLO 205 colon
[21] = system: CCRF-CEM leukemia
[22] = system: EKVX NSCLC
[23] = system: RPMI-8226 leukemia
[24] = system: MALME-3M melanoma
[25] = system: SK-OV-3 ovarian
[26] = system: M14 melanoma
[27] = system: ACHN renal
[28] = system: IGROV1 ovarian
[29] = system: SNB-75 CNS
[30] = system: U251 CNS
[31] = system: MOLT-4 leukemia
[32] = system: 786-0 renal
[33] = system: SF-539 CNS
[34] = system: CAKI-1 renal
[35] = system: SN12C renal
[36] = system: HL-60(TB) leukemia
[37] = system: T-47D breast
[38] = system: SK-MEL-5 melanoma
[39] = system: NCI-H23 lung
[40] = system: NCI-H522 lung
[41] = system: LOX IMVI melanoma
[42] = system: HS 578T breast
[43] = system: HCT-116 colon
[44] = system: HOP-92 NSCLC
[45] = system: RXF 393 renal
[46] = system: OVCAR-5 ovarian
[47] = system: MDA-MB-231 breast
[48] = system: K-562 leukemia
[49] = system: BT-549 breast
[50] = system: OVCAR-3 ovarian
[51] = system: HT29 colon
[52] = system: KM12 colon
[53] = system: OVCAR-4 ovarian
[54] = system: A549 NSCLC
[55] = system: SNB-19 CNS
[56] = system: UACC-62 melanoma
[57] = system: NCI-H226 lung
[58] = system: SF-268 CNS

Compound: CC(C)(C)OC(=O)C1=C2C=C(O)C=CC2(C)N(Cc2ccccc2)C1=N (stereo unspecified)
- TGI [1]: 30700 nM
- TGI [2]: 19800 nM
- TGI [3]: 34700 nM
- TGI [4]: 33100 nM
- TGI [5]: 12800 nM
- TGI [6]: 5690 nM
- TGI [7]: 10700 nM
- TGI [8]: 14900 nM
- TGI [9]: 26200 nM
- TGI [10]: > 82800 nM
- TGI [11]: 9990 nM
- TGI [12]: 20200 nM
- TGI [13]: 24800 nM
- TGI [14]: 18700 nM
- TGI [15]: 28200 nM
- TGI [16]: 10600 nM
- TGI [17]: 29300 nM
- TGI [18]: 10200 nM
- TGI [19]: 21500 nM
- TGI [20]: 6240 nM
- TGI [21]: > 38200 nM
- TGI [22]: 11500 nM
- TGI [23]: > 27100 nM
- TGI [24]: 10900 nM
- TGI [25]: 42100 nM
- TGI [26]: 10400 nM
- TGI [27]: 5560 nM
- TGI [28]: 16600 nM
- TGI [29]: > 56700 nM
- TGI [30]: 43300 nM
- TGI [31]: > 32700 nM
- TGI [32]: 12700 nM
- TGI [33]: 12700 nM
- TGI [34]: 4190 nM
- TGI [35]: 25500 nM
- TGI [36]: 6350 nM
- TGI [37]: 10200 nM
- TGI [38]: 15900 nM
- TGI [39]: 31200 nM
- TGI [40]: 4000 nM
- TGI [41]: 8440 nM
- TGI [42]: > 91600 nM
- TGI [43]: 9830 nM
- TGI [44]: 5910 nM
- TGI [45]: 6960 nM
- TGI [46]: 33100 nM
- TGI [47]: 21600 nM
- TGI [48]: > 32900 nM
- TGI [49]: 4580 nM
- TGI [50]: 13800 nM
- TGI [51]: 14000 nM
- TGI [52]: 23100 nM
- TGI [53]: 19100 nM
- TGI [54]: 28100 nM
- TGI [55]: 33800 nM
- TGI [56]: 29000 nM
- TGI [57]: 28600 nM

Compound: CN(C)CCn1c(=O)c2ccc3c4c(nn3CCN(C)C)c3cc([N+](=O)[O-])ccc3n(c1=O)c24
- TGI [1]: 974 nM
- TGI [2]: 576 nM
- TGI [3]: 176 nM
- TGI [4]: 310 nM
- TGI [5]: 1200 nM
- TGI [6]: 979 nM
- TGI [7]: 363 nM
- TGI [8]: 745 nM
- TGI [9]: 1680 nM
- TGI [10]: 701 nM
- TGI [11]: 650 nM
- TGI [12]: 243 nM
- TGI [13]: 2930 nM
- TGI [14]: 1990 nM
- TGI [15]: 1050 nM
- TGI [16]: 959 nM
- TGI [17]: 207 nM
- TGI [18]: 2010 nM
- TGI [19]: 219 nM
- TGI [20]: 297 nM
- TGI [21]: 417 nM
- TGI [22]: 434 nM
- TGI [23]: 397 nM
- TGI [24]: 1120 nM
- TGI [25]: 959 nM
- TGI [26]: 1290 nM
- TGI [27]: 975 nM
- TGI [28]: 4500 nM
- TGI [30]: 2940 nM
- TGI [32]: 277 nM
- TGI [33]: 2830 nM
- TGI [34]: 275 nM
- TGI [35]: 429 nM
- TGI [36]: 638 nM
- TGI [37]: 10800 nM
- TGI [38]: 1980 nM
- TGI [39]: 397 nM
- TGI [58]: 942 nM
- TGI [40]: 200 nM
- TGI [41]: 1160 nM
- TGI [42]: 2820 nM
- TGI [43]: 325 nM
- TGI [45]: 434 nM
- TGI [46]: 448 nM
- TGI [47]: 491 nM
- TGI [49]: 3340 nM
- TGI [50]: 2260 nM
- TGI [52]: 433 nM
- TGI [53]: 223 nM
- TGI [54]: 1230 nM
- TGI [55]: 1080 nM
- TGI [56]: 952 nM
- TGI [57]: 2350 nM

Compound: Oc1ccccc1C1=NOC(c2ccc(C(F)(F)F)cc2)C1 (stereo unspecified)
- TGI [1]: > 50000 nM
- TGI [2]: > 50000 nM
- TGI [3]: > 50000 nM
- TGI [4]: > 50000 nM
- TGI [5]: > 50000 nM
- TGI [6]: > 50000 nM
- TGI [7]: > 50000 nM
- TGI [8]: > 50000 nM
- TGI [9]: > 50000 nM
- TGI [10]: > 50000 nM
- TGI [11]: > 50000 nM
- TGI [12]: > 50000 nM
- TGI [13]: > 50000 nM
- TGI [14]: > 50000 nM
- TGI [15]: > 50000 nM
- TGI [16]: > 50000 nM
- TGI [17]: > 50000 nM
- TGI [18]: > 16200 nM
- TGI [19]: > 50000 nM
- TGI [20]: > 50000 nM
- TGI [21]: > 50000 nM
- TGI [22]: > 50000 nM
- TGI [23]: > 50000 nM
- TGI [24]: > 50000 nM
- TGI [25]: > 50000 nM
- TGI [26]: > 50000 nM
- TGI [27]: > 50000 nM
- TGI [28]: > 33300 nM
- TGI [29]: > 50000 nM
- TGI [30]: > 50000 nM
- TGI [31]: > 50000 nM
- TGI [32]: > 50000 nM
- TGI [33]: > 50000 nM
- TGI [34]: > 50000 nM
- TGI [35]: > 50000 nM
- TGI [36]: > 50000 nM
- TGI [37]: > 38100 nM
- TGI [38]: > 50000 nM
- TGI [39]: > 50000 nM
- TGI [58]: > 50000 nM
- TGI [40]: > 50000 nM
- TGI [41]: > 50000 nM
- TGI [42]: > 50000 nM
- TGI [43]: > 50000 nM
- TGI [45]: > 50000 nM
- TGI [46]: > 50000 nM
- TGI [47]: > 50000 nM
- TGI [48]: > 50000 nM
- TGI [49]: > 50000 nM
- TGI [50]: > 50000 nM
- TGI [51]: > 50000 nM
- TGI [52]: > 50000 nM
- TGI [53]: > 50000 nM
- TGI [54]: > 50000 nM
- TGI [55]: > 50000 nM
- TGI [56]: > 50000 nM
- TGI [57]: > 50000 nM

Compound: COC1=CC(=O)c2c(c(COP(=O)(N(C)CCBr)N(C)CCBr)cn2C)C1=O
- TGI [1]: 776 nM
- TGI [2]: 7020 nM
- TGI [3]: 983 nM
- TGI [4]: 315 nM
- TGI [5]: 1060 nM
- TGI [6]: 317 nM
- TGI [7]: 294 nM
- TGI [8]: 193 nM
- TGI [9]: 964 nM
- TGI [10]: 1710 nM
- TGI [11]: 671 nM
- TGI [12]: 274 nM
- TGI [13]: 330 nM
- TGI [14]: 1200 nM
- TGI [15]: 366 nM
- TGI [16]: 314 nM
- TGI [17]: 192 nM
- TGI [18]: 496 nM
- TGI [19]: 222 nM
- TGI [20]: 209 nM
- TGI [21]: 1780 nM
- TGI [22]: 578 nM
- TGI [23]: 441 nM
- TGI [24]: 291 nM
- TGI [25]: 1880 nM
- TGI [26]: 259 nM
- TGI [27]: 72.8 nM
- TGI [28]: 3930 nM
- TGI [29]: 442 nM
- TGI [30]: 448 nM
- TGI [31]: > 100000 nM
- TGI [32]: 349 nM
- TGI [33]: 67.8 nM
- TGI [34]: 377 nM
- TGI [35]: 371 nM
- TGI [36]: > 100000 nM
- TGI [37]: 19000 nM
- TGI [38]: 328 nM
- TGI [39]: 2060 nM
- TGI [58]: 1750 nM
- TGI [40]: 374 nM
- TGI [41]: 3560 nM
- TGI [42]: 2930 nM
- TGI [45]: 289 nM
- TGI [46]: 564 nM
- TGI [47]: 1070 nM
- TGI [49]: 616 nM
- TGI [50]: 877 nM
- TGI [51]: 222 nM
- TGI [52]: 1070 nM
- TGI [53]: 3000 nM
- TGI [54]: 659 nM
- TGI [55]: 3760 nM
- TGI [56]: 272 nM
